Reference: PubChem BioAssay (NCI)
Values joined by “and” are separate entries in the source; they are usually repeats but may differ in a detail not shown here. Identical values can stand only once.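 Test compounds were applied to cells in 96-well plates for 48 hours at 5 doses. Abbreviation: GI50, concentration required for 50% inhibition of growth. At the TGI there is no net growth.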

How the values were obtained:
Assay in all cases: NCI anticancer screen, dose series, 48 h
A498 renal = system: A498 renal
OVCAR-4 ovarian = system: OVCAR-4 ovarian
OVCAR-8 ovarian = system: OVCAR-8 ovarian
M14 melanoma = system: M14 melanoma
HOP-62 NSCLC = system: HOP-62 NSCLC
SK-OV-3 ovarian = system: SK-OV-3 ovarian
NCI-H460 lung = system: NCI-H460 lung
NCI-H522 lung = system: NCI-H522 lung
NCI-H23 lung = system: NCI-H23 lung
LOX IMVI melanoma = system: LOX IMVI melanoma

SMILES | GI50 (A498 renal) | TGI (A498 renal) | GI50 (OVCAR-4 ovarian) [µM] | TGI (OVCAR-4 ovarian) | GI50 (OVCAR-8 ovarian) | TGI (OVCAR-8 ovarian) | GI50 (M14 melanoma) | TGI (M14 melanoma) | GI50 (HOP-62 NSCLC) | TGI (HOP-62 NSCLC) | GI50 (SK-OV-3 ovarian) [µM] | TGI (SK-OV-3 ovarian) | GI50 (NCI-H460 lung) | TGI (NCI-H460 lung) | GI50 (NCI-H522 lung) | TGI (NCI-H522 lung) | GI50 (NCI-H23 lung) | TGI (NCI-H23 lung) | GI50 (LOX IMVI melanoma) | TGI (LOX IMVI melanoma)
CCCCCCCCCc1cc[n+](CC(=O)c2ccc([N+](=O)[O-])cc2)cc1 | 1.26 µM | 3.14 µM | 0.78 | 2.57 µM | 0.604 µM | 2.13 µM | 0.553 µM | 2.14 µM | 1.05 µM | 2.39 µM | 1.66 | 3.18 µM | 1.53 µM | 3.08 µM | 1.36 µM | 2.87 µM | 1.01 µM | 2.56 µM | 1.66 µM | 3.19 µM
CS(=O)(=O)CCNCc1ccc(-c2ccc3ncnc(Nc4ccc(OCc5cccc(F)c5)c(C(F)(F)F)c4)c3c2)o1 | 3.54 µM | 9.04 µM | 3.65 | 10.8 µM | 4.76 µM | 11.2 µM | 4.36 µM | 8.67 µM | 4.03 µM | 8.27 µM | 3.61 | 9.86 µM | 4.1 µM | 8.51 µM | 3.58 µM | 7.25 µM | 3.88 µM | 8.51 µM | 3.96 µM | 8.13 µM
CC(=O)C1C(=O)NC(=O)C1=O (stereo not given) | – | > 100 µM | – | > 100 µM | – | > 100 µM | – | > 100 µM | – | > 100 µM | – | > 100 µM | – | > 100 µM | – | > 100 µM | – | > 100 µM | – | > 100 µM
CS(=O)(=O)Nc1cccc(-c2cc(-c3ccccc3Cl)c(C#N)c(N)n2)c1 | 0.669 µM | 14.4 µM | 1.92 | 35.6 µM | 1.05 µM | 19.9 µM | 0.464 µM | 14.6 µM | 0.558 µM | 16.6 µM | 0.737 | 13.8 µM | 0.417 µM | 11.5 µM | 0.294 µM | 3.89 µM | 0.651 µM | 19.5 µM | 0.531 µM | 17.4 µM
Cc1cc(O)c(C2=NN(c3ccc(S(N)(=O)=O)cc3)C(c3ccc(N(C)C)cc3)C2)c(C)c1Cl (stereo not given) | 26.7 µM | 43.9 µM | 13.3 | 27.6 µM | 27.3 µM | > 100 µM | 14 µM | 29.4 µM | 18.6 µM | 34.8 µM | 27.4 | 90.8 µM | 12.2 µM | 27.4 µM | 18.6 µM | 48.4 µM | 17.7 µM | 43.7 µM | 14.8 µM | 32 µM
CCn1cc(-c2ccnc3[nH]ccc23)c(-c2cccc(NC(=O)Nc3ccc(OCc4ccccc4)cc3)c2)n1 | 7.64 µM | > 25 µM | > 23.4 | > 25 µM | 15.7 µM | > 25 µM | 14.4 µM | > 25 µM | > 14.9 µM | > 25 µM | > 22.4 | > 25 µM | 7.45 µM | > 25 µM | 2.98 µM | > 25 µM | 16.5 µM | > 25 µM | 6.01 µM | > 25 µM
CN1CCN(c2ccc(Nc3nc(N)c(C(=O)c4ccc5c(c4)OCCO5)s3)cc2)CC1 | 2.3 µM | 6.22 µM | 4.02 | 10.5 µM | 5.94 µM | 16.7 µM | 3.99 µM | > 18.1 µM | 5.18 µM | 13.2 µM | 4.36 | 10.6 µM | 2.85 µM | 9.75 µM | 4.32 µM | 9.84 µM | 3.69 µM | 11.3 µM | 3.2 µM | 7.21 µM
Cc1nc(CN2CCCCC2)c(O)c(=O)[nH]1 | – | > 100 µM | – | > 100 µM | – | > 100 µM | – | > 100 µM | – | > 100 µM | – | > 100 µM | – | > 100 µM | – | > 100 µM | – | > 100 µM | – | > 100 µM
Nc1ncnc2c1c(-c1cccc(OCc3ccccc3)c1)cn2C1CC(CN2CCC2)C1 (stereo not given) | 1.74 µM and 1.24 µM | 5.59 µM and 6.85 µM | 3.49 | 15.3 µM and > 10 µM | 5.92 µM and 8.46 µM | 20 µM and > 10 µM | 1.59 µM and 1.65 µM | 3.28 µM and 3.55 µM | 1.88 µM and 3.79 µM | 8.33 µM and > 10 µM | 3.99 | 11.3 µM and > 10 µM | 2.41 µM and 2.87 µM | 15.4 µM and > 10 µM | 2.18 µM and 7.48 µM | 5.92 µM and > 10 µM | 4.62 µM and 7.36 µM | 21.1 µM and > 10 µM | 1.51 µM and 1.41 µM | 3.02 µM and 3 µM
CCN(CC)CCCC(C)Nc1nc(C)cc(Nc2ccc3nc(C)cc(N)c3c2)n1 (stereo not given) | > 100 µM | > 100 µM | 20.9 | 60.8 µM | 84.5 µM | > 100 µM | 33.7 µM | > 100 µM | 38.9 µM | > 100 µM | > 100 | > 100 µM | 24.3 µM | 62.8 µM | 23.9 µM | 91.9 µM | 32.1 µM | > 100 µM | 18.4 µM | 39.8 µM
O=[N+]([O-])/C=C/c1cc2ccccc2[nH]1 | – | 34.4 µM | – | 27.4 µM | – | 48.8 µM | – | 28.5 µM | – | 32.4 µM | – | 32.8 µM | – | 30.4 µM | – | 24.2 µM | – | 30.2 µM | – | 29.5 µM
O=C(O)CCC/C=C\C[C@H]1C=CC(=O)/C1=C/C[C@@H](O)CCc1cccc(C(F)(F)F)c1 | 2.13 µM | 4.06 µM | 3.94 | 16.8 µM | 2.86 µM | 11.6 µM | 2 µM | 6.76 µM | 2.93 µM | 7.27 µM | 5.66 | 18.3 µM | 2.23 µM | 4.96 µM | 1.35 µM | 3.8 µM | 2.25 µM | 6.37 µM | 1.29 µM | 2.89 µM
COC(=O)Nc1nc2ccc(C(=O)c3ccc(N(C)C4COC4)cc3)cc2[nH]1 | 0.413 µM | > 100 µM | 2.85 | > 100 µM | 0.482 µM | > 100 µM | 0.279 µM | > 100 µM | 0.471 µM | > 100 µM | 0.536 | > 100 µM | 0.359 µM | > 100 µM | 0.337 µM | 4.34 µM | 0.713 µM | > 100 µM | 0.761 µM | > 100 µM
COc1cc2c(cc1OC)C(OC)N(C)c1c-2ccc2cc3c(cc12)OCO3 (stereo not given) | – | 1.83 µM | – | 26 µM | – | 21.6 µM | – | 25.6 µM | – | 7.4 µM | – | 2.53 µM | – | 3.58 µM | – | 0.766 µM | – | 6.49 µM | – | > 32.8 µM
